# Patent US20170129903A1, “COMPOUNDS COMPRISING 1,1a,2,5a-TETRAHYDROSPIRO[INDOLE-3,2a-PYRROLE]-2,5a-DIONE SYSTEM AS INHIBITORS P53-MDM2 PROTEIN-PROTEIN INTERACTION” (ADAMED SP. Z O.O., priority 2014, published 2017)
# Key:
# [1] = biological target: T1, p53-Mdm2 interaction (N-terminal domain of Mdm2 protein, amino acids 1-111) (Homo sapiens, UniProt Q00987); assay: Fluorescence polarization (FP) binding assay of p53-Mdm2 interaction; settings: for Ki: FP assay, 130 nM Mdm2, FAM-labelled p53 peptide, Ki transformed from IC50 using Kenakin equation
# T1 construct: N-terminal domain of Mdm2 protein (amino acids 1-111)
# Procedure: The inhibition of p53-Mdm2 interaction was measured using a fluorescence polarization (FP) binding assay. FP measures the rotational movement of molecules in a homogenous suspension. For this assay, N-terminal domain of Mdm2 protein (amino acids 1-111) is combined with a fluorescein-labelled (FAM) peptide derived from p53 trans-activation domain. Upon excitation of the fluorescent ligand with linearly polarized light, […]. If the peptide is bound by Mdm2, rotation will slow down and the perpendicular component will decrease. Disruption of the formation of the peptide-Mdm2 complex due to an inhibitor molecule binding to the p53 binding site of Mdm2 results in faster rotation of the peptide.
# Fluorescence polarization experiments were read on Tecan Infinite M1000 reader with the 470 nm excitation and 520 nm emission filters for fluorescein. The fluorescence polarization was measured in black 96-well plates (Corning, CLS3991) in room temperature. Purity of Mdm2 was controlled at >95%. Reaction buffer was optimized by adding 5 mM DTT and 0.1% zwitterionic detergent CHAPS to reduce effect of nonspecific interactions.
# The test was performed by combining successive dilution of compounds diluted in dimethyl sulfoxide (DMSO, 5% final concentration) with 130 nM Mdm2 in reaction buffer (PBS, 0.1% CHAPS, 5 mM DTT (dithiothreitol)). After 15 minutes of incubation in room temperature […] FAM-labelled peptide was added. Final reading was performed after 90 minutes of incubation. Dose-dependent binding curves and IC50 values were calculated using GraphPad Prism5 and next transformed to Ki values using Kenakin equation.
# [2] = tested on: SJSA-1 osteosarcoma cell line; assay: MTT cell viability assay; assay type: cell-based; settings: Homo sapiens, SJSA-1, 72 h, 72 h incubation, average of 2-5 experiments
# Procedure: The effect of the invented p53-Mdm2 inhibitors on cell viability has been assessed using MTT assay. It is a colorimetric assay that measures conversion of tetrazolium ring of the soluble yellow dye (MTT) into insoluble purple formazan. This process is catalysed solely in mitochondrial dehydrogenases of living cells.
# Cells were seeded on 96-well plates and then treated with successive dilutions of tested compounds. After 72 h incubation, MTT was added to the final concentration 0.5 mg/ml. The cells were further incubated for the next 4 h. Then the solution was drained and the remaining formazan crystals were dissolved in 100 μl DMSO. […] All the MTT experiments were independently repeated 2-5 times. Dose-dependent binding curves and IC50 values were calculated using GraphPad Prism 5.
# T1 sequence (Q00987 1-111): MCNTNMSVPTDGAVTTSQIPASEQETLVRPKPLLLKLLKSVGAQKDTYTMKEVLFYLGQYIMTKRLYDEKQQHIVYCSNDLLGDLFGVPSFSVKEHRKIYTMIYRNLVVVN
Structure (SMILES),Ki [1] [nM],IC50 [2] [µM],times less potent than Compound 56 (enantiomer) ([1]; G=S)
"Cc1ncc(Cl)cc1N1C(=O)c2n[nH]c(C(C)C)c2C12C(=O)Nc1cc(Cl)ccc12 (stereo not shown) [Compound 84, 6-chloro-5′-(5-chloro-2-methylpyridin-3-yl)-3′-(propan-2-yl)-1,2,5′,6′-tetrahydro-2′H-spiro[indole-3,4′-pyrrolo[3,4-c]pyrazole]-2,6′-dione]",152,46.1,–
"CS(=O)(=O)OC1=C(c2ccccc2)C2(C(=O)Nc3cc(Cl)ccc32)N(c2cccc(Cl)c2)C1=O (stereo not shown) [Compound 52, 6-chloro-1′-(3-chlorophenyl)-2,5′-dioxo-3′-phenyl-1,1′,2,5′-tetrahydrospiro[indole-3,2′-pyrrole]-4′-yl methanesulfonate]",800,39.6,–
"CCc1ccccc1-n1nc2c(c1CC)C1(C(=O)Nc3cc(Cl)ccc31)N(c1cc(Cl)ccc1C)C2=O (stereo not shown) [Compound 85, 6-chloro-5′-(5-chloro-2-methylphenyl)-3′-ethyl-2′-(2-ethylphenyl)-1,2,5′,6′-tetrahydro-2′H-spiro[indole-3,4′-pyrrolo [3,4-c]pyrazole]-2,6′-dione]",86,13,–
"COc1ccc(Cl)cc1N1C(=O)c2n[nH]c(C3(C)CC3)c2C12C(=O)Nc1cc(Cl)ccc12 (stereo not shown) [Compound 22, 6-chloro-5′-(5-chloro-2-methoxyphenyl)-3′-(1-methylcyclopropyl)-1,2,5′,6′-tetrahydro-2′H-spiro[indole-3,4′-pyrrolo [3,4-c]pyrazole]-2,6′-dione]",120,6.95,–
"COc1ccc(Cl)cc1N1C(=O)c2n[nH]c(C(C)C)c2C12C(=O)Nc1cc(Cl)ccc12 (stereo not shown) [Compound 25, 6-chloro-5′-(5-chloro-2-methoxyphenyl)-3′-(propan-2-yl)-1,2,5′,6′-tetrahydro-2′H-spiro[indole-3,4′-pyrrolo[3,4-c]pyrazole]-2,6′-dione]",94,10.2,–
"O=C1C(O)=C(Sc2ccc(Cl)cc2)[C@]2(C(=O)Nc3cc(Cl)ccc32)N1c1cccc(Cl)c1 [Compound 55, (3S)-6-chloro-1′-(3-chlorophenyl)-3′-[(4-chlorophenyl)sulfanyl]-4′-hydroxy-1,1′,2,5′-tetrahydrospiro[indole-3,2′-pyrrole]-2,5′-dione]",1910,–,about 19 times
"O=C1C(O)=C(c2ccccc2)C2(C(=O)Nc3cc(F)ccc32)N1c1cccc(Cl)c1 (stereo not shown) [Compound 42, 1′-(3-chlorophenyl)-6-fluoro-4′-hydroxy-3′-phenyl-1,1′,2,5′-tetrahydrospiro[indole-3,2′-pyrrole]-2,5′-dione]",90,–,–
"O=C1C(O)=C(Sc2ccc(Cl)cc2)[C@@]2(C(=O)Nc3cc(Cl)ccc32)N1c1cccc(Cl)c1 [Compound 56, (3R)-6-chloro-1′-(3-chlorophenyl)-3′[(4-chlorophenyl)sulfanyl]-4′-hydroxy-1,1′,2,5′-tetrahydrospiro[indole-3,2′-pyrrole]-2,5′-dione]",100,–,–
"O=C1C(O)=C(c2ccccc2)C2(C(=O)Nc3ccccc32)N1c1cccc(Cl)c1 (stereo not shown) [Compound 39, 1′-(3-chlorophenyl)-4′-hydroxy-3′-phenyl-1,1′,2,5′-tetrahydrospiro[indole-3,2′-pyrrole]-2,5′-dione]",750,–,–
"O=C1C(O)=C(c2cccc(Cl)c2)C2(C(=O)Nc3cc(Cl)ccc32)N1c1ccccc1 (stereo not shown) [Compound 37, 6-chloro-3′-(3-chlorophenyl)-4′-hydroxy-1′-phenyl-1,1′,2,5′-tetrahydrospiro[indole-3,2′-pyrrole]-2,5′-dione]",190,–,–
"Cc1ccc(Cl)cc1N1C(=O)C(O)=C(C(=O)C2(C)CC2)C12C(=O)Nc1cc(Cl)ccc12 (stereo not shown) [Compound 2, 6-chloro-1′-(5-chloro-2-methylphenyl)-4′-hydroxy-3′-(1-methylcyclopropane-carbonyl)-1,1′,2,5′-tetrahydrospiro[indole-3,2′-pyrrole]-2,5′-dione]",122,–,–
"O=C(O)CSC1=C(c2ccccc2)C2(C(=O)Nc3cc(Cl)ccc32)N(c2cccc(Cl)c2)C1=O (stereo not shown) [Compound 51, 2-[6-chloro-1′-(3-chlorophenyl)-2,5′-dioxo-3′-phenyl-1,1′,2,5′-tetrahydrospiro [indole-3,2′-pyrrole]-4′-ylsulfanyl]acetic acid]",130,–,–
"CC(C)(C)CN1C(=O)C(O)=C(c2cccc(Cl)c2)C12C(=O)Nc1cc(Cl)ccc12 (stereo not shown) [Compound 36, 6-chloro-3′-(3-chlorophenyl)-1′-(2,2-dimethylpropyl)-4′-hydroxy-1,1′,2,5′-tetrahydrospiro[indole-3,2′-pyrrole]-2,5′-dione]",295,–,–

# Compounds with a lower Ki [1], results first:
Ki [1] [nM],IC50 [2] [µM],times less potent than Compound 56 (enantiomer) ([1]; G=S),Structure (SMILES)
70,15.1,–,"COc1ccc(Cl)cc1N1C(=O)c2n[nH]c(C(C)(C)C)c2C12C(=O)Nc1cc(Cl)ccc12 (stereo not shown) [Compound 21, 3′-tert-butyl-6-chloro-5′-(5-chloro-2-methoxyphenyl)-1,2,5′,6′-tetrahydro-2′H-spiro[indole-3,4′-pyrrolo[3,4-c]pyrazole]-2,6′-dione]"
64,22.3,–,"CC1(c2[nH]nc3c2C2(C(=O)Nc4cc(Cl)ccc42)N(c2cccc(Cl)c2)C3=O)CC1 (stereo not shown) [Compound 19, 6-chloro-5′-(3-chlorophenyl)-3′-(1-methylcyclopropyl)-1,2,5′,6′-tetrahydro-2′H-spiro[indole-3,4′-pyrrolo[3,4-c]pyrazole]-2,6′-dione]"
5.7,1.02,–,"COC(=O)c1ccc(OC)c(-n2nc3c(c2C(C)C)C2(C(=O)Nc4cc(Cl)ccc42)N(c2cc(Cl)ccc2O)C3=O)c1 (stereo not shown) [Compound 79, methyl 3-[6-chloro-5′-(5-chloro-2-hydroxyphenyl)-2,6′-dioxo-3′-(propan-2-yl)-1,2,5′,6′-tetrahydro-2′H-spiro[indole-3,4′-pyrrolo[3,4-c]pyrazole]-2′-yl]-4-methoxybenzoate]"
4.6,0.38,–,"CCN(CC)S(=O)(=O)c1ccc(OC)c(-n2cc3c(c2C(C)C)C2(C(=O)Nc4cc(Cl)ccc42)N(c2cc(Cl)ccc2C)C3=O)c1 (stereo not shown) [Compound 98, 3-[6-chloro-2′-(5-chloro-2-methylphenyl)-2,3′-dioxo-6′-(propan-2-yl)-1,2,3′,5′-tetrahydro-2′H-spiro[indole-3,1′-pyrrolo [3,4-c]pyrrole]-5′-yl]-N,N-diethyl-4-methoxybenzene-1-sulfonamide]"
4.5,2.2,–,"CO[C@H]1CNCC[C@H]1n1cc2c(c1C(C)C)[C@@]1(C(=O)Nc3cc(Cl)ccc31)N(c1cc(Cl)ccc1C)C2=O [Compound 103, (3S)-6-chloro-2′-(5-chloro-2-methyl-phenyl)-5′-[(3S,4R)-3-methoxy-piperidin-4-yl]-6′-(propan-2-yl)-1,2,3′,5′-tetrahydro-2′H-spiro[indole-3,1′-pyrrolo [3,4-c]pyrrole]-2,3′-dione]"
4.3,1.07,–,"COc1ccccc1-n1nc2c(c1C(C)C)C1(C(=O)Nc3cc(Cl)ccc31)N(c1cccc(Cl)c1)C2=O (stereo not shown) [Compound 27, 6-chloro-5′-(3-chlorophenyl)-2′-(2-methoxyphenyl)-3′-(propan-2-yl)-1,2,5′,6′-tetrahydro-2′H-spiro[indole-3,4′-pyrrolo [3,4-c]pyrazole]-2,6′-dione]"
3.3,0.29,–,"COc1ccc(-n2nc3c(c2C(C)C)C2(C(=O)Nc4cc(Cl)ccc42)N(c2cc(Cl)ccc2C)C3=O)c(OC)n1 (stereo not shown) [Compound 114, 6-chloro-5′-(5-chloro-2-methylphenyl)-2′-(2,6-dimethoxypyridin-3-yl)-3′-(propan-2-yl)-1,2,5′,6′-tetrahydro-2′H-spiro[indole-3,4′-pyrrolo[3,4-c]pyrazole]-2,6′-dione]"
2.9,0.66,–,"COc1ccccc1-n1cc2c(c1C(C)C)[C@@]1(C(=O)Nc3cc(Cl)ccc31)N(c1cc(Cl)ccc1NS(C)(=O)=O)C2=O [Compound 102, N-{4-chloro-2-[(3S)-6-chloro-5′-(2-methoxy-phenyl)-2,3′-dioxo-6′-(propan-2-yl)-1,2,3′,5′-tetrahydro-2′H-spiro[indole-3,1′-pyrrolo[3,4-c]pyrrole]-2′-yl]phenyl} methanesulfonamide]"
1.3,0.07,–,"COc1ccc(N)cc1-n1cc2c(c1C(C)C)[C@@]1(C(=O)Nc3cc(Cl)ccc31)N(c1cc(Cl)ccc1C)C2=O [Compound 109, (3S)-5′-(5-amino-2-methoxyphenyl)-6-chloro-2′-(5-chloro-2-methylphenyl)-6′-(propan-2-yl)-1,2,3′,5′-tetrahydro-2′H-spiro[indole-3,1′-pyrrolo[3,4-c]pyrrole]-2,3′-dione]"
